The source of these data is patent publication US8318725B2, “Aryl indolyl sulfonamide compounds and their use as 5-HT6 ligands” (Suven Life Sciences Limited, priority 2008, dated 2012).

A word on the Cmax: it is the peak of the concentration-time curve. In general, Tmax refers to the time from dosing to the highest level. Usually half-life stands for how long it takes for the measured level to halve. One may read the Ki as the dissociation constant of the complex between target and ligand, obtained from inhibition or displacement. In general, melting point refers to the temperature of the solid-liquid transition. A word on the inhibition: it is the share of the control response that was lost under treatment.

Each structure is given as a SMILES string. Like-named read-outs stand apart in the source and are kept apart here.

In one data set the test system is Male Wister rats. Description: Object recognition task model (NORT). The format is in vivo. As to conditions: for NORT Discriminative Index (DI), treatment: p.o., vehicle value in brackets; for NORT Inference: at the dose tested (10 or 30 mg/kg, p.o.). Here is the method:
Object Recognition Task Model
The cognition-enhancing properties of compounds of this invention were estimated using a model of animal cognition: the object recognition task model.
Male Wister rats (230-280 grams) obtained from N. I. N. (National Institute of Nutrition, Hyderabad, India) were used as experimental animals. Four animals were housed in each cage. Animals were kept on 20% food deprivation before one day and given water ad libitum throughout the experiment and-maintained on a 12 hours light/dark cycle. Also the rats were habituated to individual arenas for 1 hour in the absence of any objects.
One group of 12 rats received vehicle (1 mL/Kg) orally and another set of animals received compound of the formula (I) either orally or i.p., before one hour of the familiar (T1) and choice trial (T2).
The experiment was carried out in a 50×50×50 cm open field made up of acrylic. In the familiarilation phase, (T1), the rats were placed individually in the open field for 3 minutes, in which two identical objects (plastic bottles, 12.5 cm height×5.5 cm diameter) covered in yellow masking tape alone (a1 and a2) were positioned in two adjacent corners, 10 cm. from the walls. After 24 hours of the (T1) trial for long-term memory test, the same rats were placed in the same arena as they were, placed in T1 trial. Choice phase (T2) rats were allowed to explore the open field for 3 minutes in presence of one familiar object (a3) and one novel object (b) (Amber color glass'bottle, 12 cm high and 5 cm in diameter). Familiar objects presented similar textures, colors and sizes. During the T1 and T2 trial, explorations of each object (defined as sniffing, licking, chewing or having moving vibrissae whilst directing the nose towards the object at a distance of less than 1 cm) were recorded separately by stopwatch. Sitting on an object was not regarded as exploratory activity, however, it was rarely observed. T1 is the total time spent exploring the familiar objects (a1+a2). T2 is the total time spent exploring the familiar object and novel object (a3+b).
The object recognition test was performed as described by Ennaceur, A., Delacour, J., 1988, A new one-trial test for neurobiological studies of memory in rats—Behavioral data, Behay. Brain Res., 31, 47-59.
Some representative compounds have shown positive effects indicating the increased novel object recognition viz; increased exploration time with novel object and higher discrimination index.

In the next data set the test system is rats. Description: Water maze, scopolamine induced reversal. The format is in vivo. The protocol:
The water maze apparatus consisted of a circular pool (1.8 m diameter, 0.6 m high) constructed in black Perspex (TSE systems, Germany) filled with water (24±2° C.) and positioned underneath a wide-angled video camera to track animal. The 10 cm^2 perspex platform, lying 1 cm below the water surface, was placed in the centre of one of the four imaginary quadrants, which remained constant for all rats. The black Perspex used in the construction of the maze and platform offered no intramaze cues to guide escape behavior. By contrast, the training room offered several strong extramaze visual cues to aid the formation of the spatial map necessary for escape, learning. An automated tracking system, [Videomot 2 (5.51), TSE systems, Germany] was employed. This program analyzes video images acquired via a digital camera and an image acquisition board that determined path length, swim speed and the number of dutation of swim time spent in each quadrant of the water maze.

Data set [1] is described as follows: Rodent pharmacokinetic study. Format: in vivo, Male wistar rats. As to conditions: plasma, Wistar/Male rat, 10 mg/kg; for bioavailability: oral vs intravenous, read-out: Bioavailab; for Cmax / Tmax / half-life / AUC: water; for AUC: read-out: AUC1. The protocol: Rodent Pharmacokinetic Study Male wistar rats (230-280 grams) obtained from NIN (National Institute of Nutrition, Hyderabad, India) were used as an experimental animal. Three to five animals were housed in each cage. Animals were kept fasted over night and maintained on a 12 hours light/dark cycle. Three rats were dosed NCE (10 mg/Kg) orally and intravenously on day 0 and day 2. At each time point blood was collected by jugular vein. Plasma was stored frozen at −20° C. until analysis. The concentrations of the NCE compound in plasma were determined using LC-MS/MS method. Schedule time points: Pre dose 0.25, 0.5, 1, 1.5, 2, 3, 4, 6, 8, 10, 12 and 24 hours after dosing (n=3). The NCE compounds were quantified in plasma by validated LC-MS/MS method using solid phase extraction technique. NCE compounds were quantified in the calibration range of 2-2000 ng/mL in plasma. Study samples were analyzed using calibration samples in the batch and quality control samples spread across the batch. Pharmacokinetic parameters Cmax, Tmax, AUCt, AUCinf, half life, volume of distribution, clearance, mean residence time and thereby oral bioavailability were calculated by non-compartmental model using software WinNonlin version 5.1.

Another data set has as its target T1, Human 5-HT6 receptor (Homo sapiens, UniProt P50406).
T1 construct: expressed in transfected cells; host or cells: HEK293
Description: Binding assay for human 5-HT6 receptor ([3H] LSD radioligand). Particulars: [3H] LSD 1.5 nM, human recombinant receptor in HEK293 cells; for inhibition at 0.1 µM: 100 nM test compound, read-out: % Inhibition of specific binding at 100 nM. Here is the method:
Binding Assay for Human 5-HT6 Receptor
Compounds can be tested according to the following the procedures. Materials and Methods:
Receptor source: Human recombinant expressed in HEK293 cells
Radioligand: [^3H] LSD (60-80 Ci/mmol)
Final ligand concentration—[1.5 nM]
Non-specific determinant: Methiothepin mesylate—[0.1 μM]
Reference compound: Methiothepin mesylate
Positive control: Methiothepin mesylate
Reactions were carried out in […] TRIS-HCl (pH 7.4) containing 10 μM MgCl2, 0.5 mM EDTA for 60 minutes at 37° C. The reaction was terminated by rapid vacuum filtration onto glass fiber filters. Radioactivity trapped onto the filters was determined and compared to control values in order to ascertain any interactions of test compound(s) with the cloned serotonin 5-HT6binding site.
Literature Reference: Monsma F. J. Jr., et al., Molecular Cloning and Expression of Novel Serotonin Receptor with High Affinity for Tricyclic Psychotropic Drugs. Mol. Pharmacol. (43): 320-327 (1993).

Data set [2] in a line: Rodent brain penetration study. Format: in vivo, Male Wister rats. Particulars: brain homogenate and plasma; Wistar/Male rat, 10 mg/kg, water, Oral (as in table); read-out: Steady State Brain Penetration (Cb/Cp).
In another data set the test system is 5-HT6 receptor. As to conditions: literature statement; cited from earlier work.
The subject of data set [3] is animal models for schizophrenia. As to conditions: literature statement; cited from earlier work.

T1 sequence (P50406 whole entry): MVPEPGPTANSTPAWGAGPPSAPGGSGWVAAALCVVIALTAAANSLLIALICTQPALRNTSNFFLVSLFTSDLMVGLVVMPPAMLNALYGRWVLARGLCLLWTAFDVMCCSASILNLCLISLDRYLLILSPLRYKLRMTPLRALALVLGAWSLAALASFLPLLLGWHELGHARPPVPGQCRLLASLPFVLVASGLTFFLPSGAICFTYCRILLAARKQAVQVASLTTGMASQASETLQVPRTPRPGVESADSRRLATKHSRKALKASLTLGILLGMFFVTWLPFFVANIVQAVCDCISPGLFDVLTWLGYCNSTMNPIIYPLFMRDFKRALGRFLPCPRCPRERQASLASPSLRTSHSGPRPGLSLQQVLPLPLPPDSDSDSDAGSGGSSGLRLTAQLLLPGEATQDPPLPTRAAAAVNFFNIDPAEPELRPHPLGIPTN

As for `Cc1ccc(S(=O)(=O)n2ccc3ccccc32)cc1CN1CCN(C)CC1.Cl.Cl` [Example 22, 1-[4-methyl-3-(4-methylpiperazin-1-ylmethyl)benzenesulfonyl]-1H-indole dihydrochloride], in the data set on Male Wister rats (10 mg/kg), the “NORT Discriminative Index (DI), treatment” value (shortened to “NORT Discriminative Index”) is listed as 0.57 (0.54). For the same compound, in the data set on Male Wister rats, the “NORT Inference” value is “Active”. In the data set on rats, the “Scopolamine Induced Reversal” value is recorded as >30 mg/kg, p.o. In data set [1], the bioavailability is 30 ± 7%. Further, in data set [1] (Intravenous), the Cmax is 4320 ± 1680 ng/mL, the Tmax was determined as 0.08 h, the half-life is 2.69 ± 1.51 h and the AUC came to 5130 ± 1750 ng·h/mL. Moreover, in data set [1] (Oral), the Cmax stood at 1380 ± 427 ng/mL, the Tmax was found to be 0.38 ± 0.18 h, the half-life was 7.85 ± 2.62 h and the AUC was 3190 ± 1750 ng·h/mL. In addition, the Ki on Human 5-HT6 receptor came out at 7.01 nM. In addition, the Kp in data set [2] is 2.03 ± 0.42.
`CN(C)CCC=C1c2ccccc2CCc2ccccc21` [amitriptyline]: the “Affinity for the 5-HT6 receptor” value in the data set on 5-HT6 receptor was “high affinity”.
In the case of `CN1CCN(Cc2cccc(S(=O)(=O)n3ccc4ccccc43)c2)CC1` [Example 8, 1-[3-(4-Methylpiperazin-1-ylmethyl)benzenesulfonyl]-1H-indole], the “NORT Discriminative Index” value in the data set on Male Wister rats (10 mg/kg) is on record as 0.58 (0.45). In addition, the “NORT Inference” value in the data set on Male Wister rats is given as “Active”. Moreover, the “Scopolamine Induced Reversal” value in the data set with rats was “≧30 mg/kg, p.o”. Moreover, the Ki at Human 5-HT6 receptor worked out at 1.91 nM.
For `COc1ccc(NS(=O)(=O)c2sc3ccc(Cl)cc3c2C)cc1N1CCNCC1` [SB-271046, 5-Chloro-N-(4-methoxy-3-piperazin-1-ylphenyl)-3-methyl-2-benzothiophenesulfonamide], the “Activity in animal tests related to positive or negative symptoms of schizophrenia” value in data set [3] is “inactive”.
For the compound `CCN1CCN(Cc2cc(S(=O)(=O)n3ccc4ccccc43)ccc2C)CC1.Cl.Cl` [Example 23, 1-[4-methyl-3-(4-ethylpiperazin-1-ylmethyl)benzenesulfonyl]-1H-indole dihydrochloride], the melting point came to 250.13 °C. For the same compound, the “NORT Discriminative Index” value in the data set with Male Wister rats (30 mg/kg) is 0.58 (0.49). Also, in the data set on Male Wister rats, the “NORT Inference” value is “Active”. Besides, the “Scopolamine Induced Reversal” value in the data set with rats is “≧30 mg/kg, p.o”. Besides, the bioavailability in data set [1] came to 14 ± 10%. In data set [1] (Intravenous), the peak concentration (Cmax) was determined as 4680 ± 617 ng/mL, the Tmax worked out at 0.08 h, the half-life was 6.25 ± 0.35 h and the AUC is 4070 ± 888 ng·h/mL. Also, in data set [1] (Oral), the Cmax was 749 ± 836 ng/mL, the Tmax is 0.5 ± 0.43 h, the half-life was 3.18 ± 1.71 h and the AUC was 1170 ± 1050 ng·h/mL. Besides, the Ki at Human 5-HT6 receptor turned out to be 3.96 nM. Moreover, in data set [2], the Kp came out at 0.53 ± 0.13.
`Cc1cn(S(=O)(=O)c2ccc(Cl)c(CN3CCN(C)CC3)c2)c2ccccc12.Cl.Cl` [Example 35, 1-[4-Chloro-3-(4-methylpiperazin-1-ylmethyl)benzenesulfonyl]-3-methyl-1H-indole dihydrochloride] came in with a melting point of 216.9 to 218.7 °C. The “NORT Discriminative Index” value with Male Wister rats (30 mg/kg) is 0.63 (0.49). In the data set with Male Wister rats, the “NORT Inference” value was “Active”. For the same compound, the “Scopolamine Induced Reversal” value in the data set with rats is on record as >30 mg/kg, p.o. Moreover, the bioavailability in data set [1] was determined as 10 ± 6%. Also, in data set [1] (Intravenous), the highest level (Cmax) was 481 ± 331 ng/mL, the Tmax turned out to be 0.08 h, the half-life was 5.84 ± 2.21 h and the AUC turned out to be 808 ± 156 ng·h/mL. Besides, in data set [1] (Oral), the Cmax came out at 106 ± 1 ng/mL, the Tmax is 0.38 ± 0.18 h, the half-life is 1.73 ± 0.56 h and the AUC is 342 ± 152 ng·h/mL. At Human 5-HT6 receptor, the Ki amounted to 5.45 nM. The Kp in data set [2] came to 1.61 ± 0.39.
As for `CN1CCN2c3ccccc3Cc3ccccc3C2C1` (stereo not drawn) [mianserin], in the data set with 5-HT6 receptor, the “Affinity for the 5-HT6 receptor” value was “high affinity”.
`CCN1CCN(Cc2cc(S(=O)(=O)n3ccc4ccccc43)ccc2Cl)CC1.Cl.Cl` [Example 15, 1-[4-Chloro-3-(4-ethylpiperazin-1-ylmethyl)benzenesulfonyl]-1H-indole dihydrochloride] came in with a melting point of 196 to 197.1 °C. Further, at Human 5-HT6 receptor, the inhibition constant Ki worked out at 18.4 nM.
As for `CCN1CCN(Cc2cc(S(=O)(=O)n3ccc4c(Cl)cccc43)ccc2Cl)CC1.Cl.Cl` [Example 19, 1-[4-Chloro-3-(4-ethylpiperazin-1-ylmethyl)benzenesulfonyl]-4-chloro-1H-indole dihydrochloride], the melting point was in the range of 205.9 to 207.2 °C. Also, on Human 5-HT6 receptor, the inhibition at 0.1 µM is 82%.
`CN1CCN(Cc2cc(S(=O)(=O)n3ccc4cc(F)ccc43)ccc2Cl)CC1.Cl.Cl` [Example 14, 1-[4-Chloro-3-(4-methylpiperazin-1-ylmethyl)benzenesulfonyl]-5-fluoro-1H-indole dihydrochloride] registered a melting point of 220.2 to 221.3 °C. Moreover, the inhibition at 0.1 µM at Human 5-HT6 receptor came out at 73%.
